pEC50: −log10 of the molar value. Read-outs that look alike come from different tables or passages of the source.

The values that follow come from patent US8354522B2, “Immunostimulatory oligoribonucleotides” (Coley Pharmaceutical GmbH, priority 2005, dated 2013).

The series has as its system Human PBMC. Briefly: Cytokine production upon human PBMC stimulation (ORN complexed to DOTAP, 16 h, ELISA). The series is classed as cell-based. Further details: key to IFN-alpha / TNF-alpha: +: cytokine production; −: no cytokine production. The following applies: for pEC50 / IFN-alpha max activity / TNF-alpha max activity: human PBMC, ORN complexed to DOTAP, 16 h; for pEC50: full titration 2 μM to 0.9 nM; for IFN-alpha max activity / TNF-alpha max activity: mean max activity at 0.6 μM, 3-6 blood donors. How it is done:
Human peripheral blood mononuclear cells (PBMCs) were isolated from healthy donors, plated, and stimulated in vitro with various test and control immunostimulatory agents for 16 hours. After 16 hours, the supernatants were collected and then analyzed by ELISA assay. N-U-R1-R2,-Containing Oligoribonucleotides were tested complexed to DOTAP and with full titration curves (7 concentrations), starting from 2 μM ORN complexed to 25 μg/ml DOTAP and with 1/3 dilution steps. Also included were certain negative controls, including medium alone and DOTAP (25 μg/ml culture well; “Liposomes”) alone. The control immunostimulatory agents included the imidazoquinoline R-848 (2 μM with 1/3 dilution steps and 7 concentrations) the reported ligand for TLR7, ORN having TLR8 motifs such as AU and AUU sequences (SEQ ID NO:13-SEQ ID NO:15) ORN having TLR7/8 motifs such as CU, GU and GUU sequences (SEQ ID NO:19-SEQ ID NO:23).
Human PBMC were stimulated with ORN complexed to DOTAP. After 16 hours supernatants were harvested and TNF-alpha and IFN-alpha levels were measured. Mean/Max activities at 0.6 μM of 3-6 blood donors and two individual experiments were determined. […] TLR8 and TLR7/8 ORN are divided by a red line.
Human PBMC were stimulated with ORN complexed to DOTAP. After 16 hours supernatants were harvested and IFN-alpha levels were measured. Mean/Max activities at 0.6 μM and EC50 of full titration curves (range: 2 μM to 0.9 nM) of 3-6 blood donors and two individual experiments were determined. […] Low EC50/high Max activity represents TLR7/8 ORN (FIG. 5a) whereas high EC50 and low Max activity represents TLR8 ORN (FIG. 5b).
The ORN sequences listed in Table 1 were tested for IFN-alpha and TNF-alpha production upon human PBMC stimulation. Human PBMC were stimulated for 16 h with the indicated ORN, and supernatants were harvested and cytokine production measured by ELISA. Table 2 summarizes the min/max activity and EC50 of ORN for IFN-alpha and TNF-alpha production.
(In an ELISA, binding on a coated surface is turned into a signal by an enzyme label.)

Setting [1] is: human PBMC stimulated for 16 h, supernatant ELISA.

As for “C*C*G*A*G*C*C*G*C*A*U*A*U*C*C*C (CCGAGCCGCAUAUCCC; listed as RNA, chemistry not fully specified) [SEQ ID NO: 36]”, the IFN-alpha max activity is 110.4 pg/mL and the TNF-alpha max activity is 18063 pg/mL. In addition, the negative-log EC50 (pEC50) (read-out: IFN-alpha EC50) is ≤ 5.82. Under “read-out: TNF-alpha EC50”, the pEC50 is 6.07.

In turn, “C*C*G*A*G*C*C*G*C*A*U*C*C*C*C*C (CCGAGCCGCAUCCCCC; listed as RNA, chemistry not fully specified) [SEQ ID NO: 46]” showed an IFN-alpha max activity of 74.76 pg/mL and a TNF-alpha max activity of 7096 pg/mL. Further, the pEC50 (read-out: IFN-alpha EC50) is < 5.70. Besides, the pEC50 (read-out: TNF-alpha EC50) is 6.12.

Regarding “C*C*G*A*G*C*C*G*A*A*G*G*U*C*C*C (CCGAGCCGAAGGUCCC; listed as RNA, chemistry not fully specified) [SEQ ID NO: 86]”, the IFN-alpha max activity was 856.5 pg/mL and the TNF-alpha max activity worked out at 4178 pg/mL. In addition, the pEC50 (read-out: IFN-alpha EC50) is 6.12. Moreover, the pEC50 (read-out: TNF-alpha EC50) is 6.07.

Substance “C*C*G*A*G*C*C*G*A*G*U*U*U*A*C*C (CCGAGCCGAGUUUACC; listed as RNA, chemistry not fully specified) [SEQ ID NO: 58]” registered an IFN-alpha max activity of 1760 pg/mL and a TNF-alpha max activity of 36627 pg/mL. The pEC50 (read-out: IFN-alpha EC50) is 7.20. Also, where the note is “read-out: TNF-alpha EC50”, the pEC50 was 6.69.

“C*C*G*A*G*C*C*G*A*U*U*U*A*A*C*C (CCGAGCCGAUUUAACC; listed as RNA, chemistry not fully specified) [SEQ ID NO: 73]” returned an IFN-alpha max activity of 1395 pg/mL and a TNF-alpha max activity of 31619 pg/mL. Moreover, the negative logarithm of the EC50 (pEC50) (read-out: IFN-alpha EC50) is 7.26. Also, the negative-log EC50 (pEC50) (read-out: TNF-alpha EC50) is 6.79.

For “C*C*G*A*G*C*C*G*A*A*U*U*U*A*C*C (CCGAGCCGAAUUUACC; listed as RNA, chemistry not fully specified) [SEQ ID NO: 60]”, the IFN-alpha max activity was found to be 1463 pg/mL and the TNF-alpha max activity worked out at 36562 pg/mL. Moreover, the pEC50 (read-out: IFN-alpha EC50) was 6.96. For the same substance, the negative logarithm of the EC50 (pEC50) (read-out: TNF-alpha EC50) is 6.73.

For “C*C*G*A*G*C*C*G*A*A*U*U*C*A*C*C (CCGAGCCGAAUUCACC; listed as RNA, chemistry not fully specified) [SEQ ID NO: 80]”, the IFN-alpha max activity came to 1225 pg/mL and the TNF-alpha max activity turned out to be 28108 pg/mL. Further, the negative-log EC50 (pEC50) (read-out: IFN-alpha EC50) was 7.48. Also, under “read-out: TNF-alpha EC50”, the negative-log EC50 (pEC50) is 6.66.

Regarding “U*C*U*C*U*C*U (UCUCUCU; phosphorothioate linkages, chemistry not fully specified) [SEQ ID NO: 32]”, under setting [1], the IFN-alpha entry is “+” and the TNF-alpha entry is “+”.

On to “C*C*G*A*G*C*C*G*A*A*G*G*C*A*C*C (CCGAGCCGAAGGCACC; listed as RNA, chemistry not fully specified) [SEQ ID NO: 56]”, for which the IFN-alpha max activity was 59.84 pg/mL and the TNF-alpha max activity worked out at 4430 pg/mL. Moreover, the pEC50 (read-out: IFN-alpha EC50) was < 5.70.

Consider “C*C*G*A*G*C*C*G*C*C*U*A*A*C*C*C (CCGAGCCGCCUAACCC; listed as RNA, chemistry not fully specified) [SEQ ID NO: 43]”, for which the IFN-alpha max activity worked out at 144.3 pg/mL and the TNF-alpha max activity was found to be 10261 pg/mL. Besides, where the note is “read-out: IFN-alpha EC50”, the pEC50 was < 5.70. Also, the pEC50 (read-out: TNF-alpha EC50) is 6.02.

“C*C*G*A*G*C*C*G*A*A*G*C*U*G*C*C (CCGAGCCGAAGCUGCC; listed as RNA, chemistry not fully specified) [SEQ ID NO: 88]” came in with an IFN-alpha max activity of 73.19 pg/mL and a TNF-alpha max activity of 11996 pg/mL. Besides, the pEC50 (read-out: IFN-alpha EC50) was < 5.70.

Take “C*C*G*A*G*C*C*G*C*A*U*U*A*C*C*C (CCGAGCCGCAUUACCC; listed as RNA, chemistry not fully specified) [SEQ ID NO: 48]”: the IFN-alpha max activity stood at 543.4 pg/mL and the TNF-alpha max activity turned out to be 9988 pg/mL. Moreover, under “read-out: IFN-alpha EC50”, the pEC50 was 6.12. Moreover, the pEC50 (read-out: TNF-alpha EC50) was 6.10.

A word on the pEC50: it is the negative decadic logarithm of the EC50, by convention in mol/L.
